Data from patent publication US20250025438A1, “Derivative of aspartic acid and use thereof in treatment of metabolic diseases such as hepatic fibrosis and non-alcoholic hepatitis” (SHENZHEN JINGTAI TECHNOLOGY CO., LTD., priority 2021, published 2025).
Structures can show the parent of a compound that is named as a salt.

Assays:
NAFLD induced by HFD = experiment: Mouse NAFLD model induced by HFD, H&E staining; format: in vivo, C57BL/6J male mice; conditions: HFD diet mice, 10, 50, 150 mg/kg by gavage bid, 8 weeks, vs untreated group, FIG. 9
Procedure: • (1) C57BL/6J male mice aged 6 to 8 weeks were selected and randomly divided into normal diet group (n=10) and HFD or CHOL group; the weight changes of the mice were recorded during the modeling period, and the modeling was conducted for 8 weeks (CHOL) or 10 weeks (HFD), then the mice in the HFD or CHOL group were randomly divided into groups according to their body weights, plus the negative control group, a total of 5 groups:
(2) Mice in the negative control group (n=10): The animals were fed with normal diet, and 200 μL of drinking water was administered by gavage, bid.
Mice in HFD or CHOL group (n=10): The animals were fed with HFD or CHOL diet, and 200 μL of normal saline was administered by gavage at the same time, bid. (Note: HFD (60% high fat) feed (Whitby Technology Development (Beijing) Co., Ltd.) (D12492), CHOL (40% high fat +1.25% cholesterol) feed (Whitby Technology Development (Beijing) Co., Ltd.) (D12108C)) (3) Mice in Compound 6-low dose group (n=10): The animals were fed with HFD or CHOL diet, and administrated simultaneously with Compound 6 at a dose of 10 mg/kg by gavage, bid.
(4) Mice in Compound 6-middle dose group (n=10): The animals were fed with HFD or CHOL diet, and administrated simultaneously with Compound 6 at a dose of 50 mg/kg by gavage, bid. […]

NS3TP1 = NS3TP1 expression in liver tissue of CCl4 liver fibrosis mice; format: in vivo, C57BL/6 wild-type mice; conditions: CCl4-induced mice, different doses by gavage, vs untreated group, FIG. 5
Procedure: Long-term intraperitoneal injection of carbon tetrachloride (CCl4) induced reversible liver fibrosis, which was often used to screen and evaluate anti-hepatic fibrosis drugs. C57BL/6 wild-type mice were randomly divided into control group, carbon tetrachloride group and treatment group. The treatments were as follows:
Mice in the carbon tetrachloride group: The animals were intraperitoneally injected with carbon tetrachloride in a total amount of 0.5 μL/g, diluted with corn oil to 10 μL/g, 3 times/week. […]

collagen I = experiment: Activated LX2 cells (TGFβ1), Western blot: Collagen I; format: cell-based; conditions: LX2 cells stimulated with TGFβ1 (5 ng/mL), 24 hours, FIG. 4

Structure (SMILES) | lipid droplet aggregation in the liver tissue of mice (H&E) (NAFLD induced by HFD) | expression of NS3TP1 in the liver tissue of mice (NS3TP1) | expression of Collagen I in the cells (collagen I)
COC(=O)C[C@H](N)C(=O)O [Compound 6] | reduced in a dose-dependent manner | gradually increased in a dose-dependent manner | –
COC(=O)C[C@H](N)C(=O)OCOC(=O)[C@@H](N)CC(=O)OC [Compound 54, 4-dimethyl O′1,01-methylene (2S,2'S)-bis (2-aminosuccinate) hydrochloride] | – | – | significantly decreased
